# Article doi:10.1101/2025.10.16.682859v2 (biorxiv, 2025)
# Tests used:
# [1] = biological target: T1, human argininosuccinate synthetase (ASS1) (Homo sapiens, UniProt P00966); experiment: differential scanning fluorimetry; assay type: binding; settings: 5 mM ATP, 10 mM MgCl2, pH 8.0
# T1 sequence (P00966 1-412): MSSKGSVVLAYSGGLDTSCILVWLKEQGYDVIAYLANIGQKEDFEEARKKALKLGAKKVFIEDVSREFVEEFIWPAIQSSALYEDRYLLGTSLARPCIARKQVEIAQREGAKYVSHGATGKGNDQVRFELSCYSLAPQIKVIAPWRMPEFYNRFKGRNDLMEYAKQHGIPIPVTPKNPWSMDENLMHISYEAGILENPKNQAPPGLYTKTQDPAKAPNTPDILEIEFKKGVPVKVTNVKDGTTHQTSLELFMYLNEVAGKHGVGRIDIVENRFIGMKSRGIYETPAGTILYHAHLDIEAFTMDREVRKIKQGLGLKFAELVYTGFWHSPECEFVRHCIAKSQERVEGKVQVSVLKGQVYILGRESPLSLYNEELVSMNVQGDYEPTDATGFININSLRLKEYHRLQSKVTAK
# [2] = biological target: T2, human asparagine synthetase (ASNS) (Homo sapiens, UniProt P08243); experiment: HPLC end-point assay of L-asparagine formation; assay type: biochemical
# T2 sequence (P08243 2-561): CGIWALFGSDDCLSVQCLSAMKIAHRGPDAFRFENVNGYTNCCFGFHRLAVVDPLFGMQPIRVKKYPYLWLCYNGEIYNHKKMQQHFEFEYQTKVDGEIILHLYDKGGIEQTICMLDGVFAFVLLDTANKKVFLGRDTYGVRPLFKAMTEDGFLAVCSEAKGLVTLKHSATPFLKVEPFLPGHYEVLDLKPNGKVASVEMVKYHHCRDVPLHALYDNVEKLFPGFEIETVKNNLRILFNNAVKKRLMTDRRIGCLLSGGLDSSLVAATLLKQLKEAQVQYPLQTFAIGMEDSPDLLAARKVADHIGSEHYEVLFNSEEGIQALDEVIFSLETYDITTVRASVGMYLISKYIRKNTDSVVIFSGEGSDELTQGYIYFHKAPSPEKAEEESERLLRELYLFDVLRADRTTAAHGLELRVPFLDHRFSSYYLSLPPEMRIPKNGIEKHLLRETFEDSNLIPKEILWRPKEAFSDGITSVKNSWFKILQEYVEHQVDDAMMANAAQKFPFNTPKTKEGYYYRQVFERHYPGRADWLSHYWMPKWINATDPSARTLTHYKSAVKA
# [3] = biological target: T3, ASNS (endogenous, HEK-293A cells) (Homo sapiens, UniProt P08243); experiment: cellular thermal shift, immunoblot; assay type: cell-based; settings: cells treated with 50 nM for 1 h, lysate heated 25-90 °C
# T3 sequence (P08243 2-561): T2 sequence (P08243 2-561)
Compound,Tm [1],IC50 [2],Tm [3]
Nc1ncnc2c1ncn2[C@@H]1O[C@H](COP(=O)(O)OP(=O)(O)OP(=O)(O)O)[C@@H](O)[C@H]1O [ATP],47 to 52 °C,–,–
"CC[C@H](N)C(=O)N1C[C@@H](c2ccc(F)cc2)[C@H](O)[C@@H]1C(=O)NC(c1ccccc1)c1ccccc1 [compound 17, ASX-173]",–,500 ± 200 nM,45 to 54 °C
